Results reported in patent publication US20250195511A1, “INDAZOLE DERIVATIVES USEFUL AS INHIBITORS OF NOD-LIKE RECEPTOR PROTEIN 3” (Merck Sharp & Dohme LLC, priority 2023, published 2025).

System: NLRP3 inflammasome
Test: NLRP3 inflammasome activation: ASC-SPECK formation in gramicidin-stimulated THP-1 cells
Format: cell-based
Settings: PMA-treated human monocytic THP-1 cells, compound 1 h before 12.5 μg/ml gramicidin, 3-hour treatment
Excerpt: Activation of the canonical NLRP3 inflammasome requires two steps, priming and activation. A priming signal such as a pathogen activated molecular patterns (PAMPs) or danger-activated molecular patterns (DAMPs) are recognized by Toll-like receptors leads to nuclear factor kappa B (NF-KB)-mediated signaling. […] The second step is activation which induces oligomerization of NLRP3 and subsequent assembly of NLRP3, apoptosis-associated speck-like protein containing a CARD (ASC), and procaspase-1 into an inflammasome complex. This triggers the transformation of procaspase-1 to caspase-1, and the production and secretion of mature IL-1β and IL-18 (Kim et al., J. Inflamm. 2015, 12, 41; Ozaki et al., J. Inflamm. Res. 2015, 8, 15-27; Rabeony et al., Eur. J. Immunol. 2015, 45, 2847). During inflammasome complex assembly, the oligomerization of NLRP3 triggers the nucleation of ASC and an event commonly referred to as “ASC SPECK” formation, as it is identified in the cell as a discrete puncta within the cell after staining and visualization of ASC using common immunocytochemical methods.
The ability of compounds to inhibit NLRP3 inflammasome activation was determined in vitro by monitoring formation of the ASC-SPECK in human monocytic THP-1 cells after stimulation. THP-1 cells (ATCC catalog #TIB-202) were maintained in complete growth media containing Roswell Park Memorial Institute RPMI (ATCC catalog #30-2001), 10% heat inactivated fetal bovine serum, 1× penicillin/streptomycin and 0.05 mM 2-mercaptoethanol. At the start of the assay, undifferentiated THP-1 cells were plated at a density of 20,000 cells per well in a 384-well plate (Poly-D-lysine coated Cell Carrier Ultra microplate, Perkin Elmer catalog #6057500) in complete growth media supplemented with 10 ng/ml phorbol 12-myristate 13-acetate (PMA; Sigma catalog #P8139), and then incubated overnight. The next day, media was replaced with assay media (RPMI (Gibco catalog #11875-093), 0.01% bovine serum albumin (BSA)). Compounds were serially diluted in DMSO and then added to wells one hour prior to the addition of 12.5 μg/ml Gramicidin (Enzo Lifescience, catalog #ALX-350-233-M005). All incubations were carried out at 37° C. (5% CO2/95% air). Following a 3-hour treatment with gramicidin, cells are fixed with 4% paraformaldehyde and stored at 4° C. until immunofluorescence staining.
Immunofluorescence staining: Anti-ASC antibody (MBL catalog #D086-3) was desalted and labeled with Alexa 488 antibody labeling kit (Thermo catalog #A20181) prior to use as described below. After fixation, the following steps were carried out at rt. Cells were first permeabilized with 0.3% polyethylene glycol tert-octylphenyl ether (Triton X-100) in phosphate-buffered saline (PBS) for 15 minutes and then incubated in blocking buffer containing 5% goat serum, 0.3% polyethylene glycol sorbitan monolaurate (Tween-20) and 0.03% sodium azide in PBS for 1 hour. Cells were stained with a mixture of ASC-Alexa 488 antibody (diluted 1:200 in blocking buffer) and nuclear stain DRAQ5 (1:5000 in blocking buffer, Thermo catalog #62251) in blocking buffer for 1 hour. Following a wash with 0.3% polyethylene glycol sorbitan monolaurate (Tween-20) in PBS, plates were imaged with an Opera Phenix High Content Screening System. The number of DRAQ5 positive cells containing ASC SPECKS were quantified in each well.
Data analysis: EC50 values were calculated by standard curve-fitting analysis using an internally developed program in TIBCO Spotfire software.

[1] = inhibition of ASC SPECK formation
[2] = Homo sapiens, THP-1, inhibition of ASC SPECK formation

SMILES | EC50 [1] [nM] | EC50 [2] [nM]
Cc1cc(C(F)(F)F)cc(O)c1-c1cnc2cn(C3CCc4nnc(C(F)(F)F)n4C3)nc2n1 (single isomer, unassigned) [Example 70, (R or S)-3-methyl-5-(trifluoromethyl)-2-(2-(3-(trifluoromethyl)-5,6,7,8-tetrahydro-[1,2,4]triazolo[4,3-a]pyridin-6-yl)-2H-pyrazolo[3,4-b]pyrazin-6-yl)phenol] | 12 | 
Cc1cc(C(F)(F)F)cc(O)c1-c1cnc2cn(C3CCc4nnc(C(F)(F)F)n4C3)nc2n1 (single isomer, unassigned) [Example 71, (S or R)-3-methyl-5-(trifluoromethyl)-2-(2-(3-(trifluoromethyl)-5,6,7,8-tetrahydro-[1,2,4]triazolo[4,3-a]pyridin-6-yl)-2H-pyrazolo[3,4-b]pyrazin-6-yl)phenol] | 198 | 
Cc1cc(C(F)(F)F)cc(O)c1-c1cnc2cn(CC(C)(C)C#N)nc2n1 [Example 12, 3-(6-(2-hydroxy-6-methyl-4-(trifluoromethyl)phenyl)-2H-pyrazolo[3,4-b]pyrazin-2-yl)-2,2-dimethylpropanenitrile] |  | 658
CCN1C[C@H](Cn2cc3ncc(-c4c(C)cc(C(F)(F)F)cc4O)nc3n2)OC1=O [Example 110, (R)-3-ethyl-5-((6-(2-hydroxy-6-methyl-4-(trifluoromethyl)phenyl)-2H-pyrazolo[3,4-b]pyrazin-2-yl)methyl)oxazolidin-2-one] |  | 168
Cc1cc(C(F)(F)F)cc(O)c1-c1cnc2cn(C34CC(CC#N)(C3)C4)nc2n1 [Example 46, 2-[3-[6-[2-hydroxy-6-methyl-4-(trifluoromethyl)phenyl]pyrazolo[3,4-b]pyrazin-2-yl]-1-bicyclo[1.1.1]pentanyl]acetonitrile] |  | 213
Cc1cc(C(F)(F)F)cc(O)c1-c1cnc2c(C(C)O)n(C3CCC(=O)N(C(C)C)C3)nc2n1 (single isomer, unassigned) [Example 119, (R or S)-5-(6-(2-hydroxy-6-methyl-4-(trifluoromethyl)phenyl)-3-((R or S)-1-hydroxyethyl)-2H-pyrazolo[3,4-b]pyrazin-2-yl)-1-isopropylpiperidin-2-one] | 291 | 
Cc1nc2cn(C3CCC(=O)N(C)C3)nc2nc1-c1ccc(C(F)(F)F)cc1O (single isomer, unassigned) [Example 111, (R or S)-5-(6-(2-hydroxy-4-(trifluoromethyl)phenyl)-5-methyl-2H-pyrazolo[3,4-b]pyrazin-2-yl)-1-methylpiperidin-2-one] | 175 | 
Cc1nc2cn(C3CCC(=O)N(C)C3)nc2nc1-c1ccc(C(F)(F)F)cc1O (single isomer, unassigned) [Example 112, (S or R)-5-(6-(2-hydroxy-4-(trifluoromethyl)phenyl)-5-methyl-2H-pyrazolo[3,4-b]pyrazin-2-yl)-1-methylpiperidin-2-one] | 605 | 
Cc1cc(C(F)(F)F)cc(O)c1-c1cnc2c(C)n(C3CCC(=O)NC3)nc2n1 (single isomer, unassigned) [Example 108, (R or S)-5-(6-(2-hydroxy-6-methyl-4-(trifluoromethyl)phenyl)-3-methyl-2H-pyrazolo[3,4-b]pyrazin-2-yl)piperidin-2-one] | 66 | 
Cc1cc(C(F)(F)F)cc(O)c1-c1cnc2cn(CC3CC(=O)N(C)C3)nc2n1 (single isomer, unassigned) [Example 58, (R or S)-4-((6-(2-hydroxy-6-methyl-4-(trifluoromethyl)phenyl)-2H-pyrazolo[3,4-b]pyrazin-2-yl)methyl)-1-methylpyrrolidin-2-one] | 298 | 
Cc1cc(Cl)cc(O)c1-c1cnc2cn([C@H]3[C@@H]4COC[C@@H]43)nc2n1 [Example 57, 2-(2-((1R,5S,6R)-3-oxabicyclo[3.1.0]hexan-6-yl)-2H-pyrazolo[3,4-b]pyrazin-6-yl)-5-chloro-3-methylphenol] |  | 60

More lines, now with the values ahead:

EC50 [1] [nM] | EC50 [2] [nM] | SMILES
10 |  | CCN1CC(n2cc3ncc(-c4c(C)cc(C(F)(F)F)cc4O)nc3n2)CCC1=O (single isomer, unassigned) [Example 64, (R or S)-1-ethyl-5-(6-(2-hydroxy-6-methyl-4-(trifluoromethyl)phenyl)-2H-pyrazolo[3,4-b]pyrazin-2-yl)piperidin-2-one]
 | 65 | Cc1cc(C(F)(F)F)cc(O)c1-c1cnc2cn(C34CC(F)(C3)C4)nc2n1 [Example 48, 2-[2-(3-fluoro-1-bicyclo[1.1.1]pentanyl)pyrazolo[3,4-b]pyrazin-6-yl]-3-methyl-5-(trifluoromethyl)phenol]
 | 261 | Cc1cc(C(F)(F)F)cc(O)c1-c1cnc2cn(C3COC4CC3C4)nc2n1 (racemic) [Example 25, (S and R)-2-(2-(2-oxabicyclo[3.1.1]heptan-4-yl)-2H-pyrazolo[3,4-b]pyrazin-6-yl)-3-methyl-5-(trifluoromethyl)phenol]
66 |  | Cc1cc(C(F)(F)F)cc(O)c1-c1cnc2cn(C3(C)CC(F)C3)nc2n1 (single isomer, unassigned) [Example 74, 2-(2-((1R,3R or 1S,3S)-3-fluoro-1-methylcyclobutyl)-2H-pyrazolo[3,4-b]pyrazin-6-yl)-3-methyl-5-(trifluoromethyl)phenol]
 | 154 | Cc1cc(C(F)(F)F)cc(O)c1-c1cnc2cn(C34COCC(C3)C4)nc2n1 [Example 14, 2-(2-(3-oxabicyclo[3.1.1]heptan-1-yl)-2H-pyrazolo[3,4-b]pyrazin-6-yl)-3-methyl-5-(trifluoromethyl)phenol]
 | 876 | Cc1cc(C(F)(F)F)cc(O)c1-c1cnc2cn(C3COC4(C)CC3C4)nc2n1 (racemic) [Example 19, (R and S)-3-methyl-2-(2-(1-methyl-2-oxabicyclo[3.1.1]heptan-4-yl)-2H-pyrazolo[3,4-b]pyrazin-6-yl)-5-(trifluoromethyl)phenol]
7 |  | Cc1cc(C(F)(F)F)cc(O)c1-c1cnc2cn(C3CCC(=O)N(C(C)C)C3)nc2n1 (single isomer, unassigned) [Example 60, (R or S)-5-(6-(2-hydroxy-6-methyl-4-(trifluoromethyl)phenyl)-2H-pyrazolo[3,4-b]pyrazin-2-yl)-1-isopropylpiperidin-2-one]
 | 814 | Cc1cc(C(F)(F)F)cc(O)c1-c1cnc2cn([C@]34CCC[C@H]3OCC4)nc2n1 (mixture of isomers) [Example 21, 2-(2-((3aS,6aR and 3aR,6aS)-hexahydro-3aH-cyclopenta[b]furan-3a-yl)-2H-pyrazolo[3,4-b]pyrazin-6-yl)-3-methyl-5-(trifluoromethyl)phenol]
291 |  | Cc1cc(C(F)(F)F)cc(O)c1-c1cnc2cn([C@H]3CCOC[C@@H]3C)nc2n1 (single isomer, unassigned) [Example 88, 3-methyl-2-(2-((3S,4R or 3R,4S)-3-methyltetrahydro-2H-pyran-4-yl)-2H-pyrazolo[3,4-b]pyrazin-6-yl)-5-(trifluoromethyl)phenol]
132 |  | Cc1cc(C(F)(F)F)cc(O)c1-c1cnc2cn(C34CCOCC3C4)nc2n1 (single isomer, unassigned) [Example 92, 2-(2-((1S,6R or 1R,6S)-3-oxabicyclo[4.1.0]heptan-6-yl)-2H-pyrazolo[3,4-b]pyrazin-6-yl)-3-methyl-5-(trifluoromethyl)phenol]
 | 103 | Cc1cc(C(F)(F)F)cc(O)c1-c1cnc2cn([C@@H]3C[C@H]3C)nc2n1 [Example 50, 3-methyl-2-[2-[(1R,2R)-2-methylcyclopropyl]pyrazolo[3,4-b]pyrazin-6-yl]-5-(trifluoromethyl)phenol]
101 |  | Cc1cc(C(F)(F)F)cc(O)c1-c1cnc2cn(C3CCC(=O)N(C(C)C)C3)nc2n1 (single isomer, unassigned) [Example 61, (S or R)-5-(6-(2-hydroxy-6-methyl-4-(trifluoromethyl)phenyl)-2H-pyrazolo[3,4-b]pyrazin-2-yl)-1-isopropylpiperidin-2-one]
